Assay results: patent publication US20200369728A1, “PEPTIDOMIMETIC MACROCYCLES AND USES THEREOF” (Aileron Therapeutics, Inc., priority 2015, published 2020)
Bridge positions count the residues as written; N and C are the ends. Square brackets hold non-standard residues; d marks the D form. Peptide text beside a SMILES is read from it. Phe(4-COOH) = N[C@@H](Cc1ccc(C(=O)O)cc1)C(=O)O; R8 = C=CCCCCCC[C@@](C)(N)C(=O)O; Cba = N[C@@H](CC1CCC1)C(=O)O; S5 = C=CCCC[C@](C)(N)C(=O)O; Nle = CCCC[C@H](N)C(=O)O

How the values were obtained:
[1] = Circular dichroism (CD) analysis of alpha-helicity; assay type: physicochemical; conditions: for Molar Ellipticity TFE − Molar Ellipticity Benign / Molar Ellipticity 50% TFE (222 in 50% TFE) / Molar Ellipticity Benign (222 in 0% TFE): 222 nm; for Molar Ellipticity 50% TFE (222 in 50% TFE): CD buffer with 50% TFE; for Molar Ellipticity 50% TFE (222 in 50% TFE) / Molar Ellipticity Benign (222 in 0% TFE): 0.05 mg/ml, 4° C.; for Molar Ellipticity Benign (222 in 0% TFE): benign CD buffer (20 mM phosphoric acid, pH 2); for % Helix benign compared to 50% TFE parent (CD): benign buffer
Procedure: Peptide solutions were analyzed by CD spectroscopy using a Jasco J-815 spectropolarimeter (Jasco Inc., Easton, Md.) with the Jasco Spectra Manager Ver. 2 system software. A Peltier temperature controller was used to maintain temperature control of the optical cell. Results are expressed as mean molar ellipticity (deg cm^2 dmol^−1) as calculated from the equation [0]=θobs·MRW/10*l*c where θobs is the observed ellipticity in millidegrees, MRW is the mean residue weight of the peptide (peptide molecular weight/number of residues), 1 is the optical path length of the cell in centimeters, and c is the peptide concentration in mg/ml. Peptide concentrations were determined by amino acid analysis. Stock solutions of peptides were prepared in benign CD buffer (20 mM phosphoric acid, pH 2). The stocks were used to prepare peptide solutions of 0.05 mg/ml in either benign CD buffer or CD buffer with 50% trifluoroethanol (TFE) for analyses in a 10 mm pathlength cell. Variable wavelength measurements of peptide solutions were scanned at 4° C. from 195 to 250 nm, in 0.2 nm increments, and a scan rate 50 nm per minute. The average of six scans was reported.

SJSA-1 cells = assay: Cell lysis by peptidomimetic macrocycles (LDH release); assay type: cell-based; conditions: SJSA-1, 1 h
Outline: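 SJSA-1 cells plated the day before, switched to RPMI with 1% FBS, then exposed 1 h at 37 °C to macrocycle at final 50 μM to 6.25 μM in 0.5% DMSO. LDH released into the supernatant was measured by kit. Controls: 0.5% DMSO (non-lytic), 10 μM melittin and 1% Triton X-100 (lytic).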

Caspase 3 = Caspase 3 detection assay in SJSA1 cells; assay type: cell-based; conditions: SJSA1, 48 h, Caspase 3 activation over DMSO-treated cells
RKO = assay: Cell viability assay (MTT), RKO; conditions: read-out: RKO EC50 (72 h)

SMILES	% Helix 50% TFE compared to 50% TFE parent (CD) [1] [%]	Molar Ellipticity TFE − Molar Ellipticity Benign [1] [deg cm^2 dmol^−1]	Molar Ellipticity 50% TFE (222 in 50% TFE) [1] [deg cm^2 dmol^−1]	Molar Ellipticity Benign (222 in 0% TFE) [1] [deg cm^2 dmol^−1]	% Helix benign compared to 50% TFE parent (CD) [1] [%]	6.25 μM % Lysed cells (1 h LDH) (SJSA-1 cells) [%]	25 μM % Lysed cells (1 h LDH) (SJSA-1 cells) [%]	50 μM % Lysed cells (1 h LDH) (SJSA-1 cells) [%]	caspase 0.3 μM (Caspase 3)	caspase 3 μM (Caspase 3)	caspase 10 μM (Caspase 3)	caspase 30 μM (Caspase 3)	caspase 1 μM (Caspase 3)	EC50 (RKO) [µM]
CC(=O)N[C@@H](CC(C)C)C(=O)N[C@H](C(=O)N[C@@H](Cc1ccccc1)C(=O)N[C@]1(C)CCCCCCC=CCCC[C@@](C)(C(=O)N[C@@H](C)C(=O)N[C@@H](C)C(=O)N[C@@H](C)C(=O)N[C@H](C)C(N)=O)NC(=O)[C@H](CC(C)C)NC(=O)[C@H](CCC(N)=O)NC(=O)[C@H](C)NC(=O)[C@H](Cc2c[nH]c3ccccc23)NC(=O)[C@H](Cc2ccc(O)cc2)NC(=O)[C@H](C)NC1=O)[C@@H](C)O (single isomer, unassigned) [compound 230]	123.9	−17760.8	−17974	−213.2	1.5	0.5	0	3	1	2	3	11		
CCCC[C@H](NC(=O)[C@H](CCC(N)=O)NC(=O)[C@H](CCC(N)=O)NC(=O)[C@]1(C)CCCC=CCCCCCC[C@@](C)(NC(=O)[C@H](Cc2ccccc2)NC(C)=O)C(=O)N[C@@H](C)C(=O)N[C@@H](Cc2ccc(O)cc2)C(=O)N[C@@H](Cc2c[nH]c3ccccc23)C(=O)N[C@@H]([C@@H](C)O)C(=O)N[C@@H](C)C(=O)N[C@@H](CC(C)C)C(=O)N1)C(=O)N[C@@H](C(N)=O)C(C)C [compound 41] (Ac-F[R8]AYWTAL[S5]QQ[Nle][dV]-NH2; staple 2-9)	136		−21319.4	−909	5.8									
CC(=O)N[C@@H](CC(C)C)C(=O)N[C@H](C(=O)N[C@@H](Cc1ccccc1)C(=O)N[C@]1(C)CCCCCCC=CCCC[C@@](C)(C(=O)N[C@@H](C)C(=O)N[C@@H](C)C(=O)N[C@@H](C)C(=O)N[C@@H](C)C(=O)N[C@@H](C)C(=O)N[C@@H](C)C(=O)N[C@H](C)C(N)=O)NC(=O)[C@H](CC(C)C)NC(=O)[C@H](CCC(N)=O)NC(=O)[C@H](C)NC(=O)[C@H](Cc2c[nH]c3ccccc23)NC(=O)[C@H](Cc2ccc(O)cc2)NC(=O)[C@H](C)NC1=O)[C@@H](C)O (single isomer, unassigned) [compound 316]						0	0	1	6.5	21	32	32.5	10.5	< 5
CC(=O)N[C@@H](CC(C)C)C(=O)N[C@H](C(=O)N[C@@H](Cc1ccccc1)C(=O)N[C@]1(C)CCCCCC/C=C/CCC[C@@](C)(C(=O)N[C@@H](C)C(=O)N[C@@H](C)C(=O)N[C@@H](C)C(=O)N[C@@H](C)C(=O)N[C@@H](C)C(=O)N[C@H](C)C(N)=O)NC(=O)[C@H](CC2CCC2)NC(=O)[C@H](CCC(N)=O)NC(=O)[C@H](CO)NC(=O)[C@H](Cc2c[nH]c3ccccc23)NC(=O)[C@H](Cc2ccc(O)cc2)NC(=O)[C@H](CCC(=O)O)NC1=O)[C@@H](C)O [compound 351]						0	0	0	3	13	15	24	9	5 to 15
CC(=O)N[C@@H](CC(C)C)C(=O)N[C@H](C(=O)N[C@@H](Cc1ccc(F)c(F)c1)C(=O)N[C@]1(C)CCCCCC/C=C/CCC[C@@](C)(C(=O)N[C@@H](CO)C(=O)N[C@@H](C)C(=O)N[C@@H](C)C(N)=O)NC(=O)[C@H](CCC(C)C)NC(=O)[C@H](CCC(N)=O)NC(=O)[C@H](C)NC(=O)[C@H](Cc2c[nH]c3ccccc23)NC(=O)[C@H](Cc2ccc(O)cc2)NC(=O)[C@H](CCC(=O)O)NC1=O)[C@@H](C)O [compound 160]						−1	−1	1	2	10	16	31		> 30
CC(=O)N[C@@H](CC(C)C)C(=O)N[C@H](C(=O)N[C@@H](Cc1ccccc1)C(=O)N[C@]1(C)CCCCCCC=CCCC[C@@](C)(C(=O)N[C@@H](Cc2c[nH]cn2)C(=O)N[C@@H](Cc2c[nH]cn2)C(=O)N[C@@H](CC(C)C)C(=O)N[C@H](C)C(N)=O)NC(=O)[C@H](CC(C)C)NC(=O)[C@H](CCC(N)=O)NC(=O)[C@H](C)NC(=O)[C@H](Cc2c[nH]c3ccccc23)NC(=O)[C@H](Cc2ccc(O)cc2)NC(=O)[C@H](C)NC1=O)[C@@H](C)O [compound 43] (Ac-LTF[R8]AYWAQL[S5]HHL[dA]-NH2; staple 4-11)	116.4	2912.9	−18247.4	−15334.5	97.8	0	−1	−1						
CC[C@H](C)[C@H](NC(=O)[C@H](C)NC(=O)[C@H](C)NC(=O)[C@]1(C)CCC/C=C/CCCCCC[C@@](C)(NC(=O)[C@H](Cc2ccccc2)NC(=O)[C@@H](NC(=O)[C@H](CC(C)C)NC(C)=O)[C@@H](C)O)C(=O)N[C@@H](CCC(=O)O)C(=O)N[C@@H](Cc2ccc(C(=O)O)cc2)C(=O)N[C@@H](Cc2c[nH]c3ccccc23)C(=O)N[C@@H](C)C(=O)N[C@@H](CCC(N)=O)C(=O)N[C@@H](CC2CCC2)C(=O)N1)C(=O)N[C@H](C)C(N)=O [compound 249] (Ac-LTF[R8]E[Phe(4-COOH)]WAQ[Cba][S5]AAI[dA]-NH2; staple (E) 4-11)						0	0	0	2	5	11	23		< 5
CC(=O)N[C@@H](C)C(=O)N[C@@H](CC(C)C)C(=O)N[C@H](C(=O)N[C@@H](Cc1ccccc1)C(=O)N[C@]1(C)CCCCCCC=CCCC[C@@](C)(C(=O)N[C@@H](CO)C(=O)N[C@@H](C)C(=O)N[C@@H](C)C(=O)N[C@@H](C)C(=O)N[C@H](C)C(N)=O)NC(=O)[C@H](CC2CCC2)NC(=O)[C@H](CCC(N)=O)NC(=O)[C@H](C)NC(=O)[C@H](Cc2c[nH]c3ccccc23)NC(=O)[C@H](Cc2ccc(O)cc2)NC(=O)[C@H](CCC(=O)O)NC1=O)[C@@H](C)O (single isomer, unassigned) [compound 357]						0	0	0	2	11	15	23	7	< 5
CC(=O)N[C@@H](CCC(=O)O)C(=O)N[C@H](C(=O)N[C@@H](Cc1ccccc1)C(=O)N[C@]1(C)CCCCCCC=CCCC[C@@](C)(C(=O)N[C@@H](CO)C(=O)N[C@@H](C)C(=O)N[C@@H](C)C(N)=O)NC(=O)[C@H](CC(C)C)NC(=O)[C@H](CCC(N)=O)NC(=O)[C@H](C)NC(=O)[C@H](Cc2c[nH]c3ccccc23)NC(=O)[C@H](Cc2ccc(O)cc2)NC(=O)[C@H](C(C)C)NC1=O)[C@@H](C)O [compound 125] (Ac-ETF[R8]VYWAQL[S5]SAA-NH2; staple 4-11)						0	0	2	1	3	9	29		5 to 15
